Test results reported in US12589097B2, “Apilimod compositions and methods of use” (ORPHAI THERAPEUTICS INC., priority 2023, dated 2026).

How the values were obtained:
[1] = tested on: Glycoprotein Nonmetastatic Melanoma Protein B (GPNMB); experiment: SOMAscan aptamer-based proteomics of plasma from patients dosed with apilimod (NCT02594384); assay type: in vivo, human; details: pre-dose vs day 15 after 14 days of dosing, FDR<0.05
Source text: A SOMAscan™ platform was used to identify analytes that were changed in the plasma of patients upon apilimod dosing. SOMAscan™ is an aptamer-based proteomics assay from SomaLogic capable of measuring 1,305 human protein analytes in serum or plasma with high sensitivity and specificity. Plasma from patients enrolled in the clinical trial designated NCT02594384 was collected pre-dose (before the first administration of apilimod) and after 14 days of dosing with apilimod, on day 15. Using differential protein analysis with a paired experimental design for linear models of microarray data using the “Limma R” software package described by Ritchie et al. in Nucleic Acids Research, 43(7), pp. e47 (2015).

[2] = Body weight (percent baseline) in TDP-43 (rNLS8) mouse model of ALS; assay type: in vivo; details: Group B (60 mg/kg p.o. BID) vs vehicle Group A
Procedure: (§1) For the evaluation, all mice received either apilimod dimesylate (60 mg/kg)) or vehicle two times daily for 24 days, starting at […] of age, 3 days prior to disease initiation. Both groups had routine clinical assessments 3 times per week. Twenty-four (24) total mice were assigned to one of two groups, as outlined in Table 1. […]
(§2) Animals were weighed at the beginning of the experiment, and then, for dosing, daily for the duration of the study. Animals were also monitored daily, and clinical assessments were performed three times per week (Mondays, Wednesday, and Fridays) from disease initiation to the end of the study. Each clinical assessment day, animals were assessed for signs of motor dysfunction, including signs of tremor, hindlimb clasping, hindlimb paralysis, grill agility, and overall well-being. Each of these signs were scored on a scale of 0-3: normal/no dysfunction (0), mild (1), moderate (2), or severe (3), as summarized in Table 2. […]
(§3) All summary statistics are presented as mean and standard deviation. […] The data were first assessed for normality with a normal probability plot, followed by assessment of homogeneity of variance, if appropriate. […]

[3] = tested on: TDP-43 (rNLS8) mouse model of ALS; experiment: Clinical assessment of motor dysfunction in TDP-43 (rNLS8) mouse model of ALS; assay type: in vivo; details: body weight and clinical scores taken together
Procedure: as §1, §2, §3
Progression of clinical scores (also herein “severity score”) throughout the study, following removal of Full DOX was evaluated. […]

[4] = Observation of adverse effects of treatment in rNLS8 mice; assay type: in vivo, mouse; details: 60 mg/kg p.o. BID for 24 days
Procedure: For the evaluation, all mice received either apilimod dimesylate (60 mg/kg)) or vehicle two times daily for 24 days, starting at […] of age, 3 days prior to disease initiation. Both groups had routine clinical assessments 3 times per week. Twenty-four (24) total mice were assigned to one of two groups, as outlined in Table 1.
Animals were weighed at the beginning of the experiment, and then, for dosing, daily for the duration of the study. Animals were also monitored daily, and clinical assessments were performed three times per week (Mondays, Wednesday, and Fridays) from disease initiation to the end of the study. Each clinical assessment day, animals were assessed for signs of motor dysfunction, including signs of tremor, hindlimb clasping, hindlimb paralysis, grill agility, and overall well-being. Each of these signs were scored on a scale of 0-3: normal/no dysfunction (0), mild (1), moderate (2), or severe (3), as summarized in Table 2.
Apilimod dimesylate was received at ambient temperature in a 50 mL tube and protected from light. The treatments were administered p.o. twice per day (BID) for a period of 24 days Each daily dose was performed within the same ˜2-hour time frame, with approximately 6 hours between doses.

For `Cc1cccc(/C=N/Nc2cc(N3CCOCC3)nc(OCCc3ccccn3)n2)c1` [apilimod], the “average fold change of plasma (shed) GPNMB” value [1] was 4 fold, the “percent baseline body weight vs vehicle at every clinical assessment visit” value [2] was “tendency for higher percent baseline body weight” and the “functional deficits in TDP-43 ALS animal model” value [3] was “ameliorates functional deficits”. For the same compound, the “adverse effects of treatment” value [4] was “No adverse effects”.
